This is an account of results in patent US20240083897A1, “GCN2 MODULATING COMPOUNDS AND USES THEREOF” (HiberCell, Inc., priority 2021, published 2024).

GCN2, sequence (Q9P2K8 whole entry): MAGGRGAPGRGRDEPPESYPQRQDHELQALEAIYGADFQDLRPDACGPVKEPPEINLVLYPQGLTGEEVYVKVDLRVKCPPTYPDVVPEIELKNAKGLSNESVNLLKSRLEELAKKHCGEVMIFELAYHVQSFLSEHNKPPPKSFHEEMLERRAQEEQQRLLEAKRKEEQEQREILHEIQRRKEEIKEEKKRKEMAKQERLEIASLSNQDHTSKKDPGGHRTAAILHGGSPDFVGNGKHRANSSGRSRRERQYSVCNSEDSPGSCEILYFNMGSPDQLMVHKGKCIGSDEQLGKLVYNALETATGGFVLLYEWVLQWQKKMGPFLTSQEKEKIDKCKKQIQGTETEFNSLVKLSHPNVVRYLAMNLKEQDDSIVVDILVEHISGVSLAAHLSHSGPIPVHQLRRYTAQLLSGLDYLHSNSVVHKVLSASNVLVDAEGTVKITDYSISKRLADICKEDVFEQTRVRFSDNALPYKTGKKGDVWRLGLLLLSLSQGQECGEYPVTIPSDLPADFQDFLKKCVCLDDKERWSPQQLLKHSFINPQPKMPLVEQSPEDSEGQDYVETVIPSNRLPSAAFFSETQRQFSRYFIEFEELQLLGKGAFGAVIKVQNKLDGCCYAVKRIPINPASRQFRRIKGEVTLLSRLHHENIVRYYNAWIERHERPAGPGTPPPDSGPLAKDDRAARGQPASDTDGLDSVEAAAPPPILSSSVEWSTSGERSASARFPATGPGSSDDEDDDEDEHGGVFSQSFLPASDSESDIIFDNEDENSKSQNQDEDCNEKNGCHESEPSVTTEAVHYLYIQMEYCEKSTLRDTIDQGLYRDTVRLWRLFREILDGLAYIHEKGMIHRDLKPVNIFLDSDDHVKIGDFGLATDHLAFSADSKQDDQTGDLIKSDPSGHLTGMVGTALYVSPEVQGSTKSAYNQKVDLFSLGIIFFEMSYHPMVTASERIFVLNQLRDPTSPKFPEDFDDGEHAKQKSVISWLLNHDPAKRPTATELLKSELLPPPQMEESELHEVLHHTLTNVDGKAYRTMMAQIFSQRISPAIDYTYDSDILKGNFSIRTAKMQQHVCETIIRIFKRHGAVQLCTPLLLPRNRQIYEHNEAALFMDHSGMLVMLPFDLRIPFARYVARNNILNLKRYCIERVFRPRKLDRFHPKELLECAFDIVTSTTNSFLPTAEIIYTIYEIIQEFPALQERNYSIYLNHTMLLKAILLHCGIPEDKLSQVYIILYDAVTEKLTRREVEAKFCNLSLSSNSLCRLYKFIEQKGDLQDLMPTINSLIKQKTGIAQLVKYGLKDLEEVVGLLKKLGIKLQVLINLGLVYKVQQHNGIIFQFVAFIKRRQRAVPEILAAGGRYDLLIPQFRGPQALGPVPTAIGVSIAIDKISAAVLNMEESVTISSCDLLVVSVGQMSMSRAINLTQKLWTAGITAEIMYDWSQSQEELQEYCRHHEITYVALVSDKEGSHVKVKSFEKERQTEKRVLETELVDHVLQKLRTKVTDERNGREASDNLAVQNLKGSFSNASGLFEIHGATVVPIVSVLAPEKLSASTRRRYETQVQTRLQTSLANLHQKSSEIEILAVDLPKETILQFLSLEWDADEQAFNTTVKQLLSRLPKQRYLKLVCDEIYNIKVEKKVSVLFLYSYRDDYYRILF

The first test addresses GCN2 (Homo sapiens (Human), UniProt Q9P2K8). Put plainly: TR-FRET biochemical assay for inhibition of GCN2.
Details: not given
On the technique in general: Time-resolved FRET reads energy transfer from a long-lived donor to a nearby acceptor.
For `COc1ncc(Cl)cc1S(=O)(=O)Nc1ccc(F)c(-c2cn3cnc(C(=O)N[C@@H]4CCN(C)C4)c3cn2)c1F` [Compound 173-1, (R)-6-(3-((5-chloro-2-methoxypyridine)-3-sulfonamido)-2,6-difluorophenyl)-N-(1-methylpyrrolidin-3-yl)imidazo[1,5-a]pyrazine-1-carboxamide], the IC50 fell in the range of 0.05 to 0.5 µM.
On the same count and under the same terms, the figure for `CNC(=O)c1ncn2cc(-c3c(F)ccc(NS(=O)(=O)c4cc(Cl)cnc4OCC(C)C)c3F)ncc12` [Compound 176, 6-[3-[5-chloro-2-(2-methylpropoxy)pyridine-3-sulfonamido]-2,6-difluorophenyl]-N-methylimidazo[1,5-a]pyrazine-1-carboxamide] is 0.5 to 1 µM.
Still for that read-out and setting: the figure for `COc1ncc(F)cc1S(=O)(=O)Nc1ccc(F)c(-c2cn3cnc(-c4[nH]cnc4C4CC4)c3cn2)c1F` [Compound 177, N-[3-[1-(5-cyclopropyl-3H-imidazol-4-yl)imidazo[1,5-a]pyrazin-6-yl]-2,4-difluorophenyl]-5-fluoro-2-methoxypyridine-3-sulfonamide] is 0.05 to 0.5 µM; for `COc1ncc(Cl)cc1S(=O)(=O)Nc1ccc(F)c(-c2cn3cnc(C(=O)NCCN(C)C)c3cn2)c1F` [Compound 179, 6-[3-(5-chloro-2-methoxypyridine-3-sulfonamido)-2,6-difluorophenyl]-N-[2-(dimethylamino)ethyl]imidazo[1,5-a]pyrazine-1-carboxamide] it is 0.05 to 0.5 µM; for `COc1ncc(Cl)cc1S(=O)(=O)Nc1ccc(F)c(-c2cn3cnc(C(=O)NCCN4CCCC4=O)c3cn2)c1F` [Compound 180, 6-[3-(5-chloro-2-methoxypyridine-3-sulfonamido)-2,6-difluorophenyl]-N-[2-(2-oxopyrrolidin-1-yl)ethyl]imidazo[1,5-a]pyrazine-1-carboxamide] it is 0.05 to 0.5 µM.
Same read-out and setting: the figure for `CNC(=O)c1ncn2cc(-c3c(F)ccc(NS(=O)(=O)c4cc(Cl)cnc4OCC(F)(F)F)c3F)ncc12` [Compound 182, 6-[3-[5-chloro-2-(2,2,2-trifluoroethoxy)pyridine-3-sulfonamido]-2,6-difluorophenyl]-N-methylimidazo[1,5-a]pyrazine-1-carboxamide] is 0.5 to 1 µM; for `CNC(=O)c1ncn2c(F)c(-c3c(F)ccc(NS(=O)(=O)c4cc(F)cnc4C)c3F)ncc12` [Compound 184, 6-[2,6-difluoro-3-(5-fluoro-2-methylpyridine-3-sulfonamido)phenyl]-5-fluoro-N-methylimidazo[1,5-a]pyrazine-1-carboxamide] it is 0.05 to 0.5 µM.

Still in this test, the particulars now being: GCN2 2 nM, 100 nM GFP-eIF2a, 150 μM ATP, TR-FRET.
On to `COc1ncc(Cl)cc1S(=O)(=O)Nc1ccc(F)c(-c2cn3cnc(C(=O)N[C@H]4CCN(C)C4)c3cn2)c1F` [Compound 173-2, (S)-6-(3-((5-chloro-2-methoxypyridine)-3-sulfonamido)-2,6-difluorophenyl)-N-(1-methylpyrrolidin-3-yl)imidazo[1,5-a]pyrazine-1-carboxamide], for which the IC50 was under 0.05 µM.
Same read-out and setting: the figure for `COc1ncc(Cl)cc1S(=O)(=O)Nc1ccc(F)c(-c2cn3cnc(C(=O)Nc4cnoc4)c3cn2)c1F` [Compound 174, 6-[3-(5-chloro-2-methoxypyridine-3-sulfonamido)-2,6-difluorophenyl]-N-(1,2-oxazol-4-yl)imidazo[1,5-a]pyrazine-1-carboxamide] is under 0.05 µM.
`COc1ncc(Cl)cc1S(=O)(=O)Nc1ccc(F)c(-c2cn3cnc(C(=O)NCCN4CCOCC4)c3cn2)c1F` [Compound 175, 6-[3-(5-chloro-2-methoxypyridine-3-sulfonamido)-2,6-difluorophenyl]-N-[2-(morpholin-4-yl)ethyl]imidazo[1,5-a]pyrazine-1-carboxamide] came in with an IC50 of under 0.05 µM.
Same read-out and setting: the figure for `COc1ncc(F)cc1S(=O)(=O)Nc1ccc(F)c(-c2cn3cnc(-c4nc(Cc5ccccc5)c[nH]4)c3cn2)c1F` [Compound 178, N-[3-[1-(4-benzyl-1H-imidazol-2-yl)imidazo[1,5-a]pyrazin-6-yl]-2,4-difluorophenyl]-5-fluoro-2-methoxypyridine-3-sulfonamide] is under 0.05 µM; for `COc1ncc(Cl)cc1S(=O)(=O)Nc1ccc(F)c(-c2cn3cnc(C(=O)Nc4ccc(CN(C)C)cc4)c3cn2)c1F` [Compound 181, 6-[3-(5-chloro-2-methoxypyridine-3-sulfonamido)-2,6-difluorophenyl]-N-[4-[(dimethylamino)methyl]phenyl]imidazo[1,5-a]pyrazine-1-carboxamide] it is under 0.05 µM.
With `CNC(=O)c1ncn2cc(-c3c(F)ccc(NS(=O)(=O)c4cc(Cl)cnc4OCc4ccccc4)c3F)ncc12` [Compound 183, 6-[3-[2-(benzyloxy)-5-chloropyridine-3-sulfonamido]-2,6-difluorophenyl]-N-methylimidazo[1,5-a]pyrazine-1-carboxamide], the IC50 is over 1 µM.
Take `COc1ncc(F)cc1S(=O)(=O)Nc1ccc(F)c(-c2ccc3c(-c4nc5ccc(N6CCN(C)CC6)cc5[nH]4)ncn3c2)c1F` [Compound 185, N-(2,4-difluoro-3-[1-[5-(4-methylpiperazin-1-yl)-3H-1,3-benzodiazol-2-yl]imidazo[1,5-a]pyridin-6-yl]phenyl)-5-fluoro-2-methoxypyridine-3-sulfonamide]: the IC50 is under 0.05 µM.
Still for that read-out and setting: the figure for `CNC(=O)c1ncn2c(F)c(-c3c(F)ccc(NS(=O)(=O)c4cc(Cl)cnc4C)c3F)ncc12` [Compound 186, 6-[3-(5-chloro-2-methylpyridine-3-sulfonamido)-2,6-difluorophenyl]-5-fluoro-N-methylimidazo[1,5-a]pyrazine-1-carboxamide] is under 0.05 µM.

One may read the IC50 as the midpoint of a concentration-inhibition curve. A high value points to weaker potency in that assay.
